One assay has as its system Mus musculus. The assay can be described thus: Effective dose required to inhibit Staphylococcus aureus UC9213 in mice subjected to a lethal systemic infection (when administered orally). Type of assay: functional, organism-based.
A further assay has as its system Enterococcus faecalis. The assay can be described thus: Antibacterial activity against Enterococcus faecalis UC9217. It counts as functional.
Assay [1] concerns Staphylococcus epidermidis. Put plainly: Antibacterial activity against Staphylococcus epidermidis UC30031UC. Type of assay: functional.
A further assay concerns Bacteroides fragilis. Put plainly: Antibacterial activity against Bacteroides fragilis UC12199. It counts as functional.

Structures are written as SMILES. Converted amounts (≈) assume the structure as drawn.

Compound `CC(=O)NC[C@@H]1OC(=O)N2c3ccc(-c4ccccc4)cc3C[C@@H]12` had an EC50 in the assay with Mus musculus above 25 mg/kg. The MIC (usually the lowest concentration that inhibits growth of the organism) in the assay on Enterococcus faecalis is 4 µg/mL (≈ 12.4 µM); in assay [1] it was 2 µg/mL (≈ 6.2 µM); against Bacteroides fragilis it was 32 µg/mL (≈ 99.3 µM).
